# Data as given in patent publication US4097582A, “6',2-(2'-Arylchromonyl) propionic acids, and analgesic and anti-inflammatory derivatives thereof” (Lipha, Lyonnaise Industrielle Pharmaceutique, priority 1974, dated 1978).
# Counter-ions that a name gives are not always drawn. Like-named read-outs stand apart in the source and are kept apart here.
# How the values were obtained:
# [1] = system: carrageenin-induced oedema; experiment: carrageenin-induced oedema test upon rats, anti-inflammatory effect (Winter et al.); format: in vivo; conditions: Rattus norvegicus, phenylbutazone control, read-out: Carrageenin (A.D. 30, mg/kg)
# Experimental: (§1) The pharmacological, analgesic and anti-inflammatory effectiveness and the slightly ulcerating effect of the propionic acids and their functional derivatives was determined by various methods. The compounds are identified by the numbers of the examples.
# The anti-inflammatory effect of the compounds claimed was established, inter alia, by the carrageenin-induced oedema test upon rats (Winter et al. -- Proc. Soc. Exp. Biol. Med. 1962, Vol. III, pages 544 and 547). The results obtained with certain of the compounds of the invention are given below in Table II (phenylbutazone was used as a control).
# acetic test upon mice = experiment: acetic test upon mice, analgesic effect (Siegmund method as modified by Koster, Anderson and Debeer); format: in vivo; conditions: Mus musculus
# Text: The compounds are identified by the numbers of the examples.
# ulcers = experiment: aggravation of ulcers already caused in rats (Shay et al.), ulcerating effect; format: in vivo
# Experimental: as §1
# The compounds were compared with phenylbutazone in order to evaluate their ulcerating effect. The method used was that of aggravating ulcers which has already been caused in rats by the procedure described by Shay et al (Gastroenterology, 1945, Vol. 5, pages 43 to 61).
# [2] = observations made during clinical trials; format: in vivo, human (patients: Mrs. / Mr.)
# Experimental: Pharmaceutical compositions comprising a compound of the invention as their active ingredient and a physiologically acceptable, solid or liquid pharmaceutical excipient or diluent enable the active ingredient to be administered in daily doses of from 20 to 1000 mg. Among the observations made during clinical trials with the compound of Example 13 the following may be mentioned:
# Among the observations made during clinical trials of the compound of Example 22 may be mentioned the following five: […]
# [3] = recently discovered; cited from earlier work
# [4] = mice, acetic test, aspirin control, read-out: ED50
# [5] = A person, inflammation of arteries in lower limbs, four 150 mg tablets per day, five days
# [6] = A person, lumbar arthrosis, six 150 mg tablets per day, 10 days
# [7] = A person, removal of left knee-cap, six 150 mg tablets per day, 5 days
# [8] = A person, very intense lumbar pain, four 150 mg tablets per day, ten days
# [9] = A person, cervical pain from arthritic spine, four 100 mg tablets per day, 8 days
# [10] = A person, pseudoarthrosis of the knee, five 100 mg tablets per day, 8 days
# [11] = A person, stripping of varicose veins, six 100 mg tablets per day, 5 days
# [12] = person one, sciatica, four 100 mg tablets per day, 10 days
# [13] = person two, post-fracture gonarthrosis, four 100 mg tablets per day, 10 days
compound,measurement,setting,value
"CCCOC(=O)C(C)c1ccc2oc(-c3ccccc3)cc(=O)c2c1 (stereo not shown) [Example 25, Propyl 2-(2'-phenyl-6'-chromonyl)propionate]",ED30,[1],85 mg/kg
same,ED50,acetic test upon mice; [4],6 mg/kg
"CC(C(=O)OCCN1CCOCC1)c1ccc2oc(-c3cccs3)cc(=O)c2c1 (stereo not drawn) [Example 32, The acid oxalate of β-morpholinoethyl-2-[2'-(α-thienyl)-6'-chromonyl]propionate]",ED50,acetic test upon mice; [4],4.6 mg/kg
"CC(C(=O)O)c1ccc2oc(-c3ccccc3)cc(=O)c2c1 (stereo not shown) [Example 22, 2-(6'-Flavonyl)propionic acid]","Aggravation of ulceration, Coefficient",ulcers; dose 300 mg/kg body weight/PO,60
same,ED30,[1],65 mg/kg
same,ED50,acetic test upon mice; [4],9 mg/kg
same,duration of relief,[2]; [5],more than three
same,relief,[2]; [5],very distinct relief
same,time after administration until relief,[2]; [5],less than 30 minutes
same,duration of relief,[2]; [6],three
same,functional improvement,[2]; [6],appreciable functional improvement
same,time after administration until relief,[2]; [6],thirty
same,results against pain and signs of inflammation,"[2]; A person, pain in neck and arm, four 150 mg tablets per day, eight days",very good
same,duration of relief,[2]; [7],> 3 h
same,relief,[2]; [7],complete
same,time until relief appears,[2]; [7],less than 30 minutes
same,antalgic effect,[2]; [8],excellent
same,distance which the patient could move their fingertips towards the ground,[2]; [8],from 40 to 5
same,improvement,[2]; [8],very pronounced improvement
same,tolerance,"[2]; A person, four 150 mg tablets per day, eight days",complete
same,tolerance,"[2]; A person, four 150 mg tablets per day, five days",satisfactory
same,tolerance,"[2]; A person, four 150 mg tablets per day, ten days",complete
same,tolerance,"[2]; A person, six 150 mg tablets per day, 5 days",good
same,tolerance,"[2]; A person, six 150 mg tablets per day, 10 days",complete
"CCCCC1C(=O)N(c2ccccc2)N(c2ccccc2)C1=O [Phenylbutazone, reference compound]","Aggravation of ulceration, Coefficient",ulcers; dose 200 mg/kg body weight/PO,100
same,ED30,[1],50 mg/kg
"COC(=O)C(C)c1ccc2oc(-c3cccs3)cc(=O)c2c1 (stereo not drawn) [Example 29, Methyl 2-[2'-(α-thienyl)-6'-chromonyl]propionate]",ED30,[1],37 mg/kg
same,ED50,acetic test upon mice; [4],2.3 mg/kg
"CC(=O)Oc1ccccc1C(=O)O [Aspirin, reference compound]",ED50,acetic test upon mice,130 mg/kg
"CC(C(=O)O)c1ccc2oc(-c3cccs3)cc(=O)c2c1 (stereo not drawn) [Example 13, 2-[2'-(α-Thienyl)-6'-chromonyl]propionic acid]","Aggravation of ulceration, Coefficient",ulcers; dose 300 mg/kg body weight/PO,50
same,ED30,[1],10 mg/kg
same,ED50,acetic test upon mice; [4],1.5 mg/kg
same,analgesic effect,[2]; [9],good
same,movement in the neck,[2]; [9],restored movement to normal amplitude in the neck unaccompanied by pain
same,antiinflammatory effect,[2]; [10],very good
same,duration of relief of pain,[2]; [10],three
same,relief of pain,[2]; [10],good
same,duration of relief,[2]; [11],3 h
same,relief,[2]; [11],complete
same,time after administration until relief apparent,[2]; [11],less than 30 minutes
same,tolerance,"[2]; A person, five 100 mg tablets per day, 8 days",perfect
same,tolerance,"[2]; A person, four 100 mg tablets per day, 8 days",very good
same,tolerance,"[2]; A person, six 100 mg tablets per day, 5 days",very good
same,analgesic effect,[2]; [12],excellent
same,improvement in the results of the Lasegue test,[2]; [12],from 45 to 75
same,tolerance,"[2]; person one, four 100 mg tablets per day, 10 days",complete
same,analgesic effect,[2]; [13],very positive
same,knee flexion improvement,[2]; [13],from 15 to 25
same,results on the knee,[2]; [13],excellent
same,temperature of the knee,[2]; [13],returned to its normal temperature
same,tolerance,"[2]; person two, four 100 mg tablets per day, 10 days",good
O=C(O)Cc1ccc2oc(-c3ccccc3)cc(=O)c2c1 [6-(2-Phenylchromonyl) acetic acid],choleretic activity,[3],choleretic activity
